Assay results reported in publication PMC12536539, “Detumescence Analgesic Plaster mitigates knee osteoarthritis via active ingredients targeting mitochondrial complex 1/AMPK/MYL3-regulated cartilage homeostasis” (Chinese Medicine, 2025).

Molecular target: T1, NDUFA6
T1 construct: SPR protein; species is a guess, rat possible
Experiment: SPR, Biacore 8K, […] Langmuir kinetic fit
Format: binding

Molecule `O=C(/C=C/c1ccc(O)c(O)c1)O[C@@H]1C[C@](OC(=O)/C=C/c2ccc(O)c(O)c2)(C(=O)O)C[C@@H](O)[C@H]1O` [1,5-dicaffeoylquinic acid] has a Kd of 735 nM.
